System: chIPS4 cells
Assay: OCT4 and SOX17 protein ICC quantification during DE induction, DEF culture system
Assay type: cell-based, human
Details: for OCT4 ICC % positive cells / SOX17 ICC % positive cells: CHIR 3 μM D1 then Activin A D2-3, or D'Amour protocol
Protocol: Human embryonic stem (hES) cells SA121 and chIPS4 (Cellartis) were grown on human fibronectin (Sigma) in DEF culture media (Cellartis) with 30 ng/ml bFGF (Invitrogen) and 10 ng/ml Noggin (Peprotech) in 6-96 well plates. Cells were single cell passaged with Rock inhibitor Y-27632 (Calbiochem) and seeded at a density of 40000 cells/cm2 for experiments. Experiments were initiated 4 d after passage.
Confluent cultures were washed once in RPMI1640 (Invitrogen) before 24 hour pre-treatment with 0,5-7μM CHIR99021 (Stemgent) in RPMI. Control cells were left untreated in RPMI and D'Amour cells were either left in RPMI or treated with AA (Peprotech)+Wnt3a (R&D Systems) without pre-treatment depending on experimental setup.
After 24 hours, pretreated and control cells were washed once with RPMI before adding 100 ng/ml AA in RPMI. D'Amour cells were also treated with 100 ng/ml AA but with 0,2% FBS instead of B27. 24 h later, 2% B27 (Invitrogen) was added to the AA media for 2-3 d. Control cells were treated with B27 to prevent cell death and D'Amour cells with 2% FBS according to published protocol. Media was changed every day.
• Day 1: Cells were washed carefully in prewarmed (37° C.) RPMI before starting the differentiation. Day1 medium was premixed (CHIR 3 μM in prewarmed RPMI+PEST) and gently added to cell culture. Volumes were adjusted according to plate formats. • Day 2: Cells were washed carefully in prewarmed (37° C.) RPMI before media change. Day2 medium was premixed (100 ng/ml Activin A in prewarmed RPMI+0.1% PEST) and gently added to cell culture. • Day 3: Day3&4 mediums were premixed (100 ng/ml Activin A and 2% B27 in prewarmed RPMI+0.1% PEST) and gently added to cell culture. • Day 4: DE was harvested or reseeded for further differentiation. Cells were checked under the microscope every day.
Cells were washed in PBS+/+ and fixed in 4% formaldehyde for 30 min (10% formaline, VWR). The cells were then washed again three times in PBS and left in PBS (4° C.) until staining. Fixed cells were washed with PBS once, then permeabilized with 0.5% Triton X-100 in PBS for 6 min, washed in PBS and blocked with TNB buffer (0.1 M Tris-HCL pH 7.5, 0.15 M NaCl, 0.5% Blocking Reagent (Perkin Elmer)) for 30 min. Primary antibodies (goat-anti-SOX17 (AF1924, RnD Systems); goat-anti-Brachyury (AF2085, RnD Systems); mouse-anti-OCT4 (sc5279, SantaCruz Biotechnology); goat-anti-PDX1 (AB47383, Abcam)) were added in 0.1% TritonX-100+PBS for 1 h in RT or 4° C. O/N. After a thorough washing step in PBS, secondary antibodies were added together with DAPI in 0.1% Triton X-100+PBS for 45 min at RT, washed thoroughly in PBS and left in PBS until photodocumentation.
Undifferentiated ChIPS4 cells (d0) were either pre-treated for 24 h with CHIR (3 μM) or directly exposed to AA (100 ng/ml) and Wnta3a (25 ng/ml) according to Kroon et al 2008. The cells were then washed and AA was added for 1-4 d.
In addition, the most striking difference between the protocols could be seen in terms of morphology with a much higher degree of cell death during D'Amour treatment. To further strengthen the results, a quantification of SOX17 protein expression was thus performed. chIPS4 cells treated with either the CHIR- or D'Amour-protocol were fixed and stained using a SOX17-specific ab and the images were quantified in respect of total amounts and the percentage of SOX17-positive cells. […] In addition, the total amount of CHIR pre-treated cells was 25% higher than the number seen after D'Amour treatment.

SMILES: Cc1c[nH]c(-c2cnc(NCCNc3ccc(C#N)cn3)nc2-c2ccc(Cl)cc2Cl)n1 [CHIR, CHIR99021]
- OCT4 ICC % positive cells (chIPS4, D1): 91.2%
- SOX17 ICC % positive cells (chIPS4, D1): 0.9%
- OCT4 ICC % positive cells (chIPS4, D2): 3.1%
- SOX17 ICC % positive cells (chIPS4, D2): 68.8%
- OCT4 ICC % positive cells (chIPS4, D3): 3.7%
- SOX17 ICC % positive cells (chIPS4, D3): 91.5%
- total amount of cells higher than after D'Amour treatment (chIPS4, d3, image quantification): 25%

From US10487313B2, “Efficient induction of definitive endoderm from pluripotent stem cells” (Novo Nordisk A/S, priority 2011, dated 2019)
